Results taken from patent US20040087561A1, “Treatment of sexual dysfunction” (priority 2000, published 2004).
Read-outs that look alike come from different tables or passages of the source. Values belong to the molecule of their own block, whether it stands above or below them.

Tests used:
[1] = system: ovariectomised female Sprague Dawley rats; test: Female rat sexual proceptivity (time investigating male vs female stimulus); type: in vivo; conditions: for MED, percentage of time spent investigating the male stimulus (proceptivity) / percentage of time spent investigating the male stimulus (proceptivity): 1 h before test
Method: (§1) Ovariectomised adult female Sprague Dawley rats (180-200 g, from Charles River) were housed in groups of 6 in a reversed lighting system of 12 h light:dark (lights off 7.00-19.00 h). Two weeks after ovariectomy they were used for sexual activity tests. The experiments started at least 5 h into the dark period.
Tests were carried out in a circular arena of 90 cm diameter, surrounded by a 30 cm high wall. Two small cages with wire-mesh front (15×15 cm) are fixed into the wall such that the front of the cage is <> with the wall and the 2 cages are opposite each other. They contained two stimuli animals: an intact sexually experienced male and a receptive female (ovariectomised, primed with 5 μg oestradiol benzoate dissolved in corn oil and injected subcutaneously 48 hours before the test and with 0.5 mg of progesterone four hours before the test). Sexually naive test and control animals were used. Forty eight hours before the tests, both the test and control animals were primed with 5 μg oestradiol benzoate. For animals used as positive controls, progesterone (0.5 mg/0.1 ml) was dissolved in corn oil and administered subcutaneously (s.c.), 4 h before the test. Test and control animals were introduced one at a time for 10 minute periods into the arena. During the 10 min test, the time that the test or positive control animal spent investigating each stimulus animal was noted. The arena was thoroughly cleaned between animals. The position of the male/female stimuli boxes was randomised between animals, in order to avoid place preference. The difference in the percentage of time spent investigating the male minus the female stimuli was calculated, out of the total time spent investigating stimuli animals.
Compound (1) was dissolved in 100% β-cyclodextrin and then diluted with saline to a final solution of 50% 2-hydroxypropyl-β-cyclodextrin. It was administered intraperitoneally (i.p.) at doses of 3 and 10 mg/kg, in a dosing volume of 1 ml/kg, 1 h before tests. Progesterone (0.5 mg/0.1 ml) was dissolved in corn oil and administered subcutaneously (s.c.), 4 h before test, as a positive control.
Ovariectomised adult female Sprague Dawley rats (180-200 g) were housed in groups of 5 in a reversed lighting system of 12 h light:dark (lights off 5.00-17.00 h). They were used for the experiments at least two weeks after ovariectomy. Forty eight hours before tests, the animals were primed with oestradiol benzoate (5 μg/0.1 ml in corn oil, s.c.). On day 1, progesterone (0.5 mg/0.1 ml, in corn oil, s.c.) was administered to one of the groups 4 h before tests, as a positive control. Compound (1) (15 mg/kg, i.p.) was administered in 50% 2-hydroxypropyl-β-cyclodextrin, 1 h before tests. The test lasted 10 minutes and was carried out as described before. The difference in the percentage of time spent investigating the male minus the female stimuli was calculated, out of the total time spent investigating stimuli animals. Animals were submitted to a test on day 1 and on day 15. From day 2 to 14 the Compound (1) group received a daily injection of the compound (15 mg/kg, i.p.), while both the vehicle and the progesterone groups received an injection of vehicle. On day 15 the test took place again, as described for day 1.
Ovariectomised female rats (Sprague Dawley, obtained from Charles River, UK) were stereotaxically implanted (coordinates 0.89 mm behind Bregma, 1.3 mm lateral and 2.5 mm vertical) with stainless steel cannulae (6 mm long, O.D. 0.75 mm), held in place with dental cement. Animals were housed in groups of three and returned to a reversed lighting system of 12 h light:dark (lights off 5.00-17.00 h). Correct placement of the cannulae was assessed post-mortem. Rats were used for tests two weeks after ovariectomy (one week after cannulation). The experiments started at least 5 h into the dark period. […]

[2] = system: ovariectomised female Sprague Dawley rats; test: Female rat sexual receptivity (lordosis quotient); type: in vivo; conditions: for lordosis quotient (LQ) compared to LQ before administration: quinelorane 6.25 μg/kg s.c., 90 min
Method: as §1
Compound (1) was dissolved in 100% β-cyclodextrin and then diluted with saline to a final solution of 50% 2-hydroxypropyl-β-cyclodextrin. It was administered intraperitoneally (i.p.) at a dose of 10 mg/kg, in a dosing volume of 1 ml/kg. Quinelorane (6.25 μg/kg) was dissolved in water and administered s.c. as positive control. Forty eight hours before testing, ovariectomised female rats (as described above), were primed with 5 μg oestradiol benzoate dissolved in corn oil and injected subcutaneously. […] The females were placed with a series of vigorous male rats and subjected to 10 mounts.
The lordotic response of the animal was recorded and expressed as a percentage of the mounts (i.e. lordosis quotient, LQ), as previously described. Animals showing LQ<20 were considered non-receptive and were included in the study. Each rat was tested prior to administration of the compound and then tested similarly post-injection. The pre-treatment times were 1 h for Compound (1) and vehicle (50% β-cyclodextrin, i.p.) or 90 min for quinelorane.
The above compound was dissolved in PEG200 vehicle and administered orally. Quinelorane dihydrochloride (LY 163,502, 6.25 μg/kg) was dissolved in water and administered subcutaneously (s.c.), as a positive control. Both compounds were administered in a 1 ml/kg volume.
Forty eight hours before tests, the animals were primed with 5 μg oestradiol benzoate (Sigma Chemical. Co. Ltd., UK) dissolved in corn oil and injected subcutaneously. The females were placed with a series of vigorous male rats and subjected to 10 mounts. The lordotic response of the animal was recorded and expressed as a percentage of the mounts (i.e. lordosis quotient, LQ). […] Animals showing higher LQ were not included in the study. Each rat was tested prior to administration of the compound and then tested similarly at 1 h and 90 min post-injection of the above compound or quinelorane respectively.

human NMB receptor (BB1) = target: T1, human NMB receptor (BB1) (Homo sapiens, UniProt P28336); test: BB1 binding assay ([125I][Tyr4]bombesin, CHO-K1 cell membranes)
T1 construct: expressed in transfected cells; host or cells: CHO-K1
Method: In the following experiments, measurement of BB1 and BB2 binding was as follows. CHO-K1 cells stably expressing cloned human NMB (for (BB1 assay) and GRP receptors (for BB2 assay) were routinely grown in Ham's F12 culture medium supplemented with 10% foetal calf serum and 2 mM glutamine. For binding experiments, cells were harvested by trypsinization, and stored frozen at −70° C. in Ham's F12 culture medium containing 5% DMSO until required. On the day of use, cells were thawed rapidly, diluted with an excess of culture medium, and centrifuged for 5 minutes at 2000 g. Cells were resuspended in 50 mM Tris-HCl assay buffer (pH 7.4 at 21° C., containing 0.02% BSA, 40 μg/mL bacitracin, 2 μg/mL chymostatin, 4 μg/mL leupeptin, and 2 μM phosphoramidon), counted, and polytronned (setting 5, 10 sec) before centrifuging for 10 minutes at 28,000 g. The final pellet was resuspended in assay buffer to a final cell concentration of 1.5×10^5/mL. For binding assays, 200 μL aliquots of membranes were incubated with [^125I][Tyr^4]bombesin (<0.1 nM) in the presence and absence of test compounds (final assay volume 250 μL) for 60 minutes and 90 minutes for NMB and GRP receptors, respectively. Nonspecific binding was defined by 1 μM bombesin. Assays were terminated by rapid filtration under vacuum onto Whatman GF/C filters presoaked in 0.2% PEI for >2 hours, and washed 50 mM Tris-HC (pH 6.9 at 21° C.; 6×1 mL). Radioactivity bound was determined using a gamma counter.
All competition data was analysed using nonlinear regression utilizing iterative curve-plotting procedures in Prism® (GraphPad Software Inc., San Diego, USA). IC50 values were corrected to Ki values using the Cheng-Prusoff equation (Cheng Y., PrusoffW. H., Biochem. Pharmacol. 22: 3099-3108, 1973).

Sprague Dawley male rats = test: Sexual behaviour of sexually dysfunctional (fluoxetine-treated) male rats; type: in vivo, rat; conditions: fluoxetine 20 mg/kg i.p. 3 days (vs vehicle+vehicle); day 4 Compound (1) 15 mg/kg or yohimbine 2 mg/kg i.p. 1 h before test (vs fluoxetine+vehicle)
Method: Sprague Dawley male rats (Charles River, UK) were kept, 4 rats per cage, in a reversed lighting regime (12:12 hours, lights off at 5.00 h), with free access to food and water. The rats were pre-selected by being presented with a receptive female at […], i.e. every third day (haying 2 clear days between presentations) until completing 6-7 trials of baseline determination. The animals showing consistently vigorous behaviour (ejaculatory latencies <300 s) were chosen for further experiments. Animals were treated for 3 consecutive days with either vehicle (water) or fluoxetine (20 mg/kg, i.p., in a 2 ml/kg dosing volume). On the fourth day, the animals treated with water received vehicle (veh+veh) and the animals treated with fluoxetine received one of the three following treatments: Compound (1) (15 mg/kg, dissolved in 50% 2-hydroxypropyl-β-cyclodextrin in saline), vehicle (cyclodextrine), or yohimbine (2 mg/kg dissolved in water). All treatments were administered i.p. in a 1 ml/kg volume, 1 h before tests.
For all the sexual behaviour tests, the males were placed in an observation arena (50-60 cm diameter), starting 5 hours into the dark cycle and observed under red illumination. Three to 4 minutes after placing the male in the arena, a receptive female (ovariectomised, bearing a 7 mm Silastic implant of oestradiol benzoate) was introduced to the arena and the following parameters noted: Mount Latency: time (in seconds) taken between introduction of female and first mount. A maximum time of 15 minutes (900 seconds) was allowed, and the test terminated if no mounts were recorded within that time (FIG. 16), Ejaculation Latency: time (in seconds) taken from first intromission to ejaculation. A maximum time of 30 minutes (1800 seconds) was given, and the test terminated if ejaculation was not achieved in that time (FIG. 17), Percentage of males achieving ejaculation within 30 minutes was calculated (FIG. 18).
A one-way ANOVA followed by Dunnett's t test was used to compare the fluoxetine+vehicle group and other groups for mount and ejaculatory latencies. Percentage of animals ejaculating was analysed using a Chi-square test followed by Fisher's test. (*: P<0.05, **: P<0.01, ***: P<0.001; n=15-19).

[3] = oral, 30-100 mg/kg in PEG 200 vehicle
[4] = p.o., 3-30 mg/kg in 0.5% methyl cellulose
[5] = Example 31, Compound (2) 10-100 mg/kg oral in PEG200, 1 h

T1 sequence (P28336 whole entry): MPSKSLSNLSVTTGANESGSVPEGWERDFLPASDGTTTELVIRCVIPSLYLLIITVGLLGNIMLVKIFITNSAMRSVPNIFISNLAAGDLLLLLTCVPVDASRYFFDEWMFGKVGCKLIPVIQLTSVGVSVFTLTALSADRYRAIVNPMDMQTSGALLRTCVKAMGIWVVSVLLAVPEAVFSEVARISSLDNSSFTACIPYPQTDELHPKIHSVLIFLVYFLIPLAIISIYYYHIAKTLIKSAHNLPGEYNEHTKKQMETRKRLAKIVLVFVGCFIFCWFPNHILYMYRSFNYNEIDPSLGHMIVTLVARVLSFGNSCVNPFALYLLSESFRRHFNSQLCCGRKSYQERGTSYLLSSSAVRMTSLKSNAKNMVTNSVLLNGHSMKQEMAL

- IC50 (human NMB receptor (BB1); Table 3): 944 nM
Molecule: Cc1ccccc1CC(=O)N[C@@](C)(Cc1c[nH]c2ccccc12)C(=O)NCC1(c2ccccn2)CCCCC1 [Example 51, (S)-3-(1H-Indol-3-yl)-2-methyl-N-(1-pyridin-2-yl-cyclohexylmethyl)-2-(2-o-tolyl-ethanoylamino)-propionamide]

- IC50 (human NMB receptor (BB1)): 214 nM
Molecule: C[C@@](Cc1c[nH]c2ccccc12)(NS(=O)(=O)c1cc(Cl)sc1Cl)C(=O)NCC1(c2ccccn2)CCCCC1 [Example 157]

Further lines, the molecule ahead of its results:

Molecule: COc1ccc(C2(CNC(=O)[C@](C)(Cc3c[nH]c4ccccc34)Nc3nc(-c4ccc([N+](=O)[O-])cc4)co3)CCCCC2)nc1 [Example 9, (S)-3-(1H-Indol-3-yl)-N-[1-(5-methoxy-pridin-2-yl)-cyclohexylmethyl]-2-methyl-2-[4-(4-nitro-phenyl)-oxazol-2-ylamino]-propionamide]
- increase in potency compared to the oral results in the PEG200 vehicle ([1]; MED in 0.5% methyl cellulose vs MED in PEG200, p.o.): 10 fold
- MED, percentage of time spent investigating the male stimulus (proceptivity) [1, 3]: 100 mg/kg
- percentage of time spent investigating the male stimulus (proceptivity) [1, 3]: increased the percentage of time spent investigating the male stimulus
- MED, percentage of time spent investigating the male stimulus (proceptivity) [1, 4]: 10 mg/kg
- percentage of time spent investigating the male stimulus (proceptivity) [1, 4]: increased the percentage of time spent investigating the male stimulus
- lordosis quotient (LQ) compared to LQ before administration [2, 5]: dose-dependently (10-100 mg/kg) increased the LQ
- MED, increase of lordosis quotient (LQ) ([2]; Example 31, single oral administration 10-100 mg/kg in PEG200, 1 h after administration): 100 mg/kg

Molecule: COC(=O)[C@@H]1[C@H]2C[C@H]3c4[nH]c5ccccc5c4CCN3C[C@@H]2CC[C@@H]1O [Yohimbine, yohimbine]
- Ejaculation latency (Sprague Dawley male rats): did not reach significance
- Mount latency (Sprague Dawley male rats): did not reach significance
- percentage of animals ejaculating (within 30 minutes) (Sprague Dawley male rats): did not reach significance

Molecule: CCCN1CCC[C@@H]2Cc3nc(N)ncc3C[C@H]21 [quinelorane, reference compound]
- lordosis quotient (LQ) compared to LQ before administration ([2]; Example 2, Compound (1) 10 mg/kg i.p., 1 h): significantly (P<0.01) increased the LQ
- lordosis quotient (LQ) compared to LQ before administration [2, 5]: significantly (P<0.01) increased the LQ

Molecule: C-Dimethylamino-N—{(S)-2-(1H-indol-3-yl)-1-methyl-1-[(1-pyridin-2-yl-cyclohexyl-methyl)-carbamoyl]-ethyl}-benzamide [Example 48]
- IC50 (human NMB receptor (BB1); Table 3): 716 nM
